Results as given in PMC9403976, “Elucidating the path to Plasmodium prolyl-tRNA synthetase inhibitors that overcome halofuginone resistance” (Nature Communications, 2022).
“And” between values parts separate entries of the source, which are not always exact repeats. Identical values can stand only once. Like-named read-outs stand apart in the source and are kept apart here.

Columns and labels:
[1] = target: HsProRS (Homo sapiens, UniProt P07814); settings: ref Heacock et al.; cited from earlier work
[2] = target: HT-PfcProRS (Plasmodium falciparum, UniProt Q8I5R7); assay: biochemical
HT-PfcProRS, sequence (Q8I5R7 249-746): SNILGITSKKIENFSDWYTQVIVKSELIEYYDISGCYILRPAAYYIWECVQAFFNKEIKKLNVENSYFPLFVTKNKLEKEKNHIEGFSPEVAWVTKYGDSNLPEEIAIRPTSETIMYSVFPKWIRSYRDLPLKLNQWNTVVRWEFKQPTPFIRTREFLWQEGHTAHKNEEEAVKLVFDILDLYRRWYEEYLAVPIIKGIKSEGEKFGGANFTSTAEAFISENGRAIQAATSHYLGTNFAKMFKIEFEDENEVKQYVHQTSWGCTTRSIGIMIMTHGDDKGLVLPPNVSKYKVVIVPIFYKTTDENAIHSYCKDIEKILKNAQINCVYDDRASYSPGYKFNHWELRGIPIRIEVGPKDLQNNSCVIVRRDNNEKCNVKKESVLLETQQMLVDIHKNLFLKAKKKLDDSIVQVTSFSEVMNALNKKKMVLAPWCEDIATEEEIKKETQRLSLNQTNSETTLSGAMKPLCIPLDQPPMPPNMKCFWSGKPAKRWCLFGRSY
Procedure: (§1) A Multidrop Combi Reagent Dispenser (Thermo Fisher Scientific) was used to dispense 20 μL of 2× protein solution into each well. […] Plates were mixed on an Ika MTS 2/4 Digital Microtiter Shaker at 750 rpm for 2 min, centrifuged at 1000 × g at 25 °C for 1 min, and allowed to equilibrate for 2 h at room temperature before TR-FRET measurements were taken.
(§2) PRISM (V. 8.4.3–9.1.0, GraphPad) was used to perform non-linear regression analysis (log(inhibitor) vs. response–Variable slope (four parameters)), plot dose-response curves, and calculate IC50 values. The Cheng–Prusoff equation was used to convert IC50 to KD values (Eq. (4)):4 KD=IC50/1+[MAT379]/KD,MAT379

[3] = target: T1, HT-HsProRS (Homo sapiens, UniProt P07814); assay: biochemical
T1 sequence (P07814 996-1512): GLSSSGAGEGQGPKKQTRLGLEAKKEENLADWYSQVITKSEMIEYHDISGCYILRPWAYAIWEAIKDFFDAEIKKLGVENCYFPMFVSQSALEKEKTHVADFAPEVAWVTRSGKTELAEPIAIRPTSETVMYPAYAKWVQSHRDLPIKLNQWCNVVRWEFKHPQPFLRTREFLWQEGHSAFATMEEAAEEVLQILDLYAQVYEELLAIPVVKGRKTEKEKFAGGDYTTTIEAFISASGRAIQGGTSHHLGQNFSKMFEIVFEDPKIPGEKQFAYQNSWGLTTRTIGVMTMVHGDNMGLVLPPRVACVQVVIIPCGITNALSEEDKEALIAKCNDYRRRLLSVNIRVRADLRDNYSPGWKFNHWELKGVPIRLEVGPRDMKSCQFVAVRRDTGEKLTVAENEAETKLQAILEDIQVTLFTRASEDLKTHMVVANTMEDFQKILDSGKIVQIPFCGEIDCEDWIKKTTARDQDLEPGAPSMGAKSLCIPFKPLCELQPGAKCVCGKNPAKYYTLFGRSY
Procedure: as §1, §2

[4] = target: T1, HT-HsProRS; settings: replicates 1-4
Procedure: as §1, §2

[5] = test system: P. falciparum Dd2-2D4; assay: P. falciparum asexual blood stage (ABS) growth assay, SYBR Green, 72 h, wild-type parasites; assay type: cell-based, Plasmodium falciparum; settings: Plasmodium falciparum; cell line Dd2-2D4 (parent); read-out: EC50 [nM] mean
[6] = test system: P. falciparum Dd2-2D4 NCP26 selections S1-3; assay: ABS growth assay on bulk populations and clones from NCP26 resistance selections S1-3; assay type: cell-based, Plasmodium falciparum; settings: Plasmodium falciparum

SMILES: Nc1ncnc2c1ncn2[C@@H]1O[C@H](COP(=O)(O)OP(=O)(O)OP(=O)(O)O)[C@@H](O)[C@H]1O [ATP]
- Km [1]: 500 µM
- Kd [2]: 892000 nM
- Kd ([3]; HsProRS (KD [nM]) mean, substrates, substrate KD, (-)): 67100 nM
- Kd ([3]; KD of substrate, […] HT-HsProRS, 1000 nM MAT379): 30600 nM
- ATP - […] HT-HsProRS - 1000nM MAT379 ([4]; Log[Substrate] (M) -1.301): 1.53E-02 and -2.24E-04 and 3.02E-02 and 2.38E-02
- ATP - […] HT-HsProRS - 1000nM MAT379 ([4]; Log[Substrate] (M) -1.602): 2.53E-02 and 6.72E-02 and 4.62E-03 and 4.29E-02
- ATP - […] HT-HsProRS - 1000nM MAT379 ([4]; Log[Substrate] (M) -1.903): 3.94E-02 and 5.54E-02 and 1.78E-02 and 4.02E-02
- ATP - […] HT-HsProRS - 1000nM MAT379 ([4]; Log[Substrate] (M) -2.204): -1.77E-02 and 2.78E-02 and -2.71E-02
- ATP - […] HT-HsProRS - 1000nM MAT379 ([4]; Log[Substrate] (M) -2.505): 4.93E-03 and 1.38E-02 and 2.29E-03 and -1.57E-02
- ATP - […] HT-HsProRS - 1000nM MAT379 ([4]; Log[Substrate] (M) -2.806): 3.39E-02 and 3.33E-02 and 1.97E-02 and 4.46E-02
- ATP - […] HT-HsProRS - 1000nM MAT379 ([4]; Log[Substrate] (M) -3.107): 5.86E-02 and 6.01E-02 and 5.77E-02 and 4.19E-02
- ATP - […] HT-HsProRS - 1000nM MAT379 ([4]; Log[Substrate] (M) -3.408): 1.19E-01 and 8.31E-02 and 6.99E-02
- ATP - […] HT-HsProRS - 1000nM MAT379 ([4]; Log[Substrate] (M) -3.709): 1.24E-01 and 1.53E-01 and 1.47E-01 and 1.40E-01
- ATP - […] HT-HsProRS - 1000nM MAT379 ([4]; Log[Substrate] (M) -4.010): 2.51E-01 and 2.58E-01 and 2.34E-01 and 2.36E-01
- ATP - […] HT-HsProRS - 1000nM MAT379 ([4]; Log[Substrate] (M) -4.311): 3.56E-01 and 3.10E-01 and 3.57E-01 and 3.37E-01
- ATP - […] HT-HsProRS - 1000nM MAT379 ([4]; Log[Substrate] (M) -4.612): 2.50E-01 and 3.45E-01 and 2.88E-01 and 2.85E-01
- ATP - […] HT-HsProRS - 1000nM MAT379 ([4]; Log[Substrate] (M) -4.913): 3.70E-01 and 3.71E-01 and 3.06E-01 and 3.78E-01
- ATP - […] HT-HsProRS - 1000nM MAT379 ([4]; Log[Substrate] (M) -5.214): 3.77E-01 and 4.09E-01 and 3.64E-01 and 3.70E-01
- ATP - […] HT-HsProRS - 1000nM MAT379 ([4]; Log[Substrate] (M) -5.515): 4.23E-01 and 4.03E-01 and 4.00E-01 and 4.38E-01
- ATP - […] HT-HsProRS - 1000nM MAT379 ([4]; Log[Substrate] (M) -5.816): 4.03E-01 and 4.66E-01 and 3.88E-01 and 4.49E-01
- ATP - […] HT-HsProRS - 1000nM MAT379 ([4]; Log[Substrate] (M) -6.118): 4.47E-01 and 4.50E-01 and 4.51E-01 and 4.46E-01
- ATP - […] HT-HsProRS - 1000nM MAT379 ([4]; Log[Substrate] (M) -6.419): 4.22E-01 and 4.52E-01 and 3.59E-01 and 4.01E-01

SMILES: C[C@H]1[C@@H](O)O[C@@H]2O[C@@]3(C)CC[C@H]4[C@H](C)CC[C@@H]1[C@@]24OO3 [DHA, dihydroartemisinin, reference compound]
- EC50 [5]: 4.95 nM
- EC50 ([6]; DD2, cell line S1 - Clone A8, read-out: EC50 [nM] mean): 3.4 nM
- EC50 ([6]; DD2, cell line S1 - bulk population, read-out: EC50 [nM] mean): 4.5 nM
- EC50 ([6]; DD2, cell line S2 - Clone A3, read-out: EC50 [nM] mean): 2 nM
- EC50 ([6]; DD2, cell line S2 - Clone B9, read-out: EC50 [nM] mean): 10.1 nM
- EC50 ([6]; DD2, cell line S2 - Clone C5, read-out: EC50 [nM] mean): 3.48 nM
- EC50 ([6]; DD2, cell line S2 - bulk population, read-out: EC50 [nM] mean): 3.55 nM
- EC50 ([6]; DD2, cell line S3 - Clone B3, read-out: EC50 [nM] mean): 3.51 nM
- EC50 ([6]; DD2, cell line S3 - Clone B7, read-out: EC50 [nM] mean): 3.12 nM
- EC50 ([6]; DD2, cell line S3 - bulk population, read-out: EC50 [nM] mean): 3.44 nM
- EC50 ([6]; DD2, read-out: EC50 [nM] mean, cell line S3 - Clone B2): 8.34 nM
